Assay results as given in patent publication US9440941B2, “Substituted chroman-6-yloxy-cycloalkanes and their use as pharmaceuticals” (SANOFI, priority 2013, dated 2016).
Structures can show the parent of a compound that is named as a salt.

biological target: T1, human NCX1 (Homo sapiens, UniProt P32418); experiment: Inhibition of Ca2+ influx into cells (NCX1 reverse mode), FLIPR Fluo-4 assay; format: cell-based; conditions: inhibition of NCX1 in reverse mode (Ca2+ influx into cells); read-out: NCX1rv IC50
T1 construct: expressed in transfected cells
Description: The sodium/calcium exchanger NCX1 can transport calcium ions and sodium ions through the cell membrane. The transport is an exchange of Ca^2+ and Na^+ in two directions depending on membrane potential and ion gradients. At the first direction, named “forward mode” or “calcium export mode”, Ca^2+ is transported out of the cell and Na^+ is transported into the cell. At the other direction, named “reverse mode” or “calcium import mode”, the transport directions are vice versa. The effect of the compounds of the invention on NCX1 was determined in CHO cells stably expressing human NCX1 (gene symbol SLC8A1; cf. WO 2009/115238). The assay is based on the monitoring of intracellular Ca^2+ concentrations using a calcium-sensitive fluorescence dye which is detected by means of a FLIPR device (Fluorimetric Imaging Plate Reader, Molecular Devices).
Assay Technology—Reverse Mode
The assay is based on the monitoring of intracellular Ca^2+ concentrations using the calcium-sensitive dye Fluo-4. CHO cells expressing NCX1 were loaded with the dye by means of the acetoxymethyl ester Fluo-4 AM (Invitrogen, F14202), which is cleaved intracellularly by esterase activity to yield the charged species of free Fluo-4. After an preincubation period with the test compound, Gramicidine (Sigma, G5002) was added. Gramicidine is an ionophor for Na^+ ions mediating an increase of intracellular Na^+ ions. Consequently, intracellular Na^+ ions are exchanged against extracellular Ca^2+ ions (Ca^2+ influx, reverse mode). The intracellular elevation of Ca^2+ ions was detected by measuring the fluorescence of Fluo-4 at a wavelength of 520 nm by a FLIPR device.
Briefly, for the reverse mode transport assay 18000 cells per well were seeded into a 96 well microplate (Corning COSTAR 3904) and incubated overnight in culture medium (1× Nut Mix F12 (Ham) (Gibco, 21765-029); 10% (v/v) fetal calf serum (PAA Gold, A15-649); 450 μg/ml Geneticin (Gibco, 10131-027)). A total volume of 100 μl medium per well was used. For the preparation of the FLIPR assay, the culture medium was removed from the plates and 100 μl of dye solution (2 μM Fluo-4 AM; 0.02% (v/v) Pluronic F-127 (20%, Invitrogen, P3000MP); 0.1% (v/v) bovine albumin solution (30% (v/v), Sigma, A9205) in assay buffer (133.8 mM NaCl (Sigma, S5886); 4.7 mM KCl (Sigma, P3911); 1.25 mM MgCl2 (Merck, 1.05833.0250); 3.5 mM CaCl2 (Merck, 1.02083.0250); 5 mM glucose (Sigma, G7021); 10 mM Hepes (Sigma, H4034); 0.01% (v/v) Pluronic F-127 (5%, Sigma, P2443); 2.5 mM Probenecid (Maybridge, SB00915EB); pH 7.4)) were added into each well. The plates were incubated in the dark at room temperature for 80 min. After the incubation period, the dye solution was removed and the wells were washed with 100 μl of assay buffer. Then 80 μl of a solution of the test compound in assay buffer in different concentrations were added into the wells. The plates were incubated at 16° C. for 45 min. Meanwhile a 60 μM solution of Gramicidine in assay buffer (4° C.) was prepared and stored in the wells of a 96 well microplate (96 well microplate, polypropylene, U-shape (Greiner Bio-One, 650201)) at 4° C. until measurement was started. The fluorescence monitoring was performed at 240 measuring points with measurement intervals of 2 sec. After the fifth measuring point, 40 μl of the Gramicidine solution were added to each well of the assay plates to give a final Gramicidine concentration of 20 μM. For the determination of the IC50 values the minimal fluorescence value was subtracted from the maximal fluorescence value for all measuring points. The calculation of the IC50 values via the percentage inhibitions of Ca^2+ influx into cells (reverse mode) effected by the test compound was performed in Biost@t Speed 2.0.

Row | Compound | IC50 [nM]
1 | Cc1cccc(C)c1C1CCc2cc(O[C@H]3CC[C@H](N)CC3)ccc2O1 (relative stereo) [compound 168, hydrochloride] | 4000
2 | Cc1cccc(C)c1C1CCc2cc(O[C@H]3CC[C@H](NCC4CCOC4)CC3)ccc2O1 (relative stereo) [compound 171] | 8300
3 | Cc1cccc(C)c1C1CCc2cc(O[C@H]3CC[C@H](NC(=O)CCn4cccn4)CC3)ccc2O1 (relative stereo) [compound 172] | 7100
4 | N[C@H]1CC[C@H](Oc2ccc3c(c2)CCC(c2ccccc2F)O3)CC1 (relative stereo) [compound 176, hydrochloride] | 1300
5 | Fc1ccccc1C1CCc2cc(O[C@H]3CC[C@H](NCC4CCOC4)CC3)ccc2O1 (relative stereo) [compound 178] | 1600
6 | O=C(CN1CCCC1)N[C@H]1CC[C@H](Oc2ccc3c(c2)CCC(c2ccccc2)O3)CC1 (relative stereo) [compound 182] | 300
7 | Cc1ccccc1C1CCc2cc(O[C@H]3CC[C@@H](CNC(=O)CN)CC3)ccc2O1 (relative stereo) [compound 185, hydrochloride] | 600
8 | Cc1ccc(F)cc1C1CCc2cc(O[C@H]3CC[C@H](NC(=O)CN)CC3)ccc2O1 (relative stereo) [compound 186] | 400
9 | Cc1n[nH]c(C)c1CCC(=O)N[C@H]1CC[C@H](Oc2ccc3c(c2)CCC(c2ccccc2F)O3)CC1 (relative stereo) [compound 234] | 100
10 | Cc1n[nH]c(C)c1CC(=O)N[C@H]1CC[C@H](Oc2ccc3c(c2)CCC(c2ccccc2F)O3)CC1 (relative stereo) [compound 235] | 1500
11 | O=C(Cn1cccn1)N[C@H]1CC[C@H](Oc2ccc3c(c2)CCC(c2ccccc2F)O3)CC1 (relative stereo) [compound 236] | 100
12 | O=C(CCn1cncn1)N[C@H]1CC[C@H](Oc2ccc3c(c2)CCC(c2ccccc2F)O3)CC1 (relative stereo) [compound 237] | 200
13 | CCC(C)(O)C(=O)N[C@H]1CC[C@H](Oc2ccc3c(c2)CCC(c2ccccc2F)O3)CC1 (relative stereo) [compound 238] | 100
14 | O=C(N[C@H]1CC[C@H](Oc2ccc3c(c2)CCC(c2ccccc2F)O3)CC1)C1CC1 (relative stereo) [compound 239] | 100
15 | O=C(CC(F)(F)F)N[C@H]1CC[C@H](Oc2ccc3c(c2)CCC(c2ccccc2F)O3)CC1 (relative stereo) [compound 240] | 100
16 | CSCC(=O)N[C@H]1CC[C@H](Oc2ccc3c(c2)CCC(c2ccccc2F)O3)CC1 (relative stereo) [compound 241] | 40
17 | Cc1noc(C)c1C(=O)N[C@H]1CC[C@H](Oc2ccc3c(c2)CCC(c2ccccc2F)O3)CC1 (relative stereo) [compound 242] | 500
18 | COCCC(=O)N[C@H]1CC[C@H](Oc2ccc3c(c2)CCC(c2ccccc2F)O3)CC1 (relative stereo) [compound 243] | 700
19 | Cc1nc(CC(=O)N[C@H]2CC[C@H](Oc3ccc4c(c3)CCC(c3ccccc3F)O4)CC2)c(C)s1 (relative stereo) [compound 245] | 300
20 | O=C(N[C@H]1CC[C@H](Oc2ccc3c(c2)CCC(c2ccccc2F)O3)CC1)c1ccncc1F (relative stereo) [compound 246] | 100
21 | Cc1nc(C(=O)N[C@H]2CC[C@H](Oc3ccc4c(c3)CCC(c3ccccc3F)O4)CC2)cs1 (relative stereo) [compound 247] | 300
22 | Cc1noc(CCC(=O)N[C@H]2CC[C@H](Oc3ccc4c(c3)CCC(c3ccccc3F)O4)CC2)n1 (relative stereo) [compound 248] | 200

Row | Compound | IC50 [nM]
23 | Cc1cc(CC(=O)N[C@H]2CC[C@H](Oc3ccc4c(c3)CCC(c3ccccc3F)O4)CC2)on1 (relative stereo) [compound 249] | 1100
24 | Cc1ccn(CC(=O)N[C@H]2CC[C@H](Oc3ccc4c(c3)CCC(c3ccccc3F)O4)CC2)n1 (relative stereo) [compound 250] | 800
25 | O=C(N[C@H]1CC[C@H](Oc2ccc3c(c2)CCC(c2ccccc2F)O3)CC1)C1CC1(F)F (relative stereo) [compound 251] | 5000
26 | O=C(CC1CC1)N[C@H]1CC[C@H](Oc2ccc3c(c2)CCC(c2ccccc2F)O3)CC1 (relative stereo) [compound 252] | 300
27 | Cc1nn(C)c(C)c1CCC(=O)N[C@H]1CC[C@H](Oc2ccc3c(c2)CCC(c2ccccc2F)O3)CC1 (relative stereo) [compound 254] | 300
28 | O=C(Cn1cncn1)N[C@H]1CC[C@H](Oc2ccc3c(c2)CCC(c2ccccc2F)O3)CC1 (relative stereo) [compound 256] | 100
29 | Cc1ccnn1CCC(=O)N[C@H]1CC[C@H](Oc2ccc3c(c2)CCC(c2ccccc2F)O3)CC1 (relative stereo) [compound 257] | 200
30 | Cc1c(CCC(=O)N[C@H]2CC[C@H](Oc3ccc4c(c3)CCC(c3ccccc3F)O4)CC2)cnn1C (relative stereo) [compound 258] | 200
31 | CS(=O)(=O)CCC(=O)N[C@H]1CC[C@H](Oc2ccc3c(c2)CCC(c2ccccc2F)O3)CC1 (relative stereo) [compound 259] | 100
32 | O=C(CSC(F)(F)F)N[C@H]1CC[C@H](Oc2ccc3c(c2)CCC(c2ccccc2F)O3)CC1 (relative stereo) [compound 260] | 400
33 | Cc1cc(C(=O)N[C@H]2CC[C@H](Oc3ccc4c(c3)CCC(c3ccccc3F)O4)CC2)n[nH]1 (relative stereo) [compound 261] | 300
34 | Cc1ccccc1C1CCc2cc(O[C@H]3CC[C@@H](C(=O)Nc4ccccn4)CC3)ccc2O1 (relative stereo) [compound 265] | 400
35 | Cc1ccccc1C1CCc2cc(O[C@H]3CC[C@H](C(=O)Nc4ccccn4)CC3)ccc2O1 (relative stereo) [compound 266] | 300
36 | Cc1ccccc1C1CCc2cc(O[C@H]3CC[C@H](NCC(=O)O)CC3)ccc2O1 (relative stereo) [compound 271] | 800
37 | O=C(CO)N[C@H]1CC[C@H](Oc2ccc3c(c2)CCC(c2ccccc2)O3)CC1 (relative stereo) [compound 278] | 200
38 | N[C@H]1C[C@@H](Oc2ccc3c(c2)CCC(c2ccccc2)O3)C1 (relative stereo) [compound 306, hydrochloride] | 1600
39 | NC1(Cc2ccccc2)CCC(Oc2ccc3c(c2)CCC(c2ccccc2)O3)CC1 (single isomer, unassigned) [compound 45, 1-Benzyl-4-(2-phenylchroman-6-yloxy)-cyclohexylamine, stereoisomeric mixture 1] | 22000
40 | NC1(Cc2ccccc2)CCC(Oc2ccc3c(c2)CCC(c2ccccc2)O3)CC1 (single isomer, unassigned) [compound 46, 1-Benzyl-4-(2-phenylchroman-6-yloxy)-cyclohexylamine, stereoisomeric mixture 2] | 11000
41 | O=C(CCn1cccn1)N[C@H]1CC[C@H](Oc2ccc3c(c2)CCC(c2ccccc2F)O3)CC1 (single isomer, unassigned) [compound 179] | 1200
42 | O=C(CCn1cccn1)N[C@H]1CC[C@H](Oc2ccc3c(c2)CCC(c2ccccc2F)O3)CC1 (single isomer, unassigned) [compound 253] | 300
43 | Cc1c(F)cccc1C1CCc2cc(OC3CCC(C(=O)NC4CCCCC4O)CC3)ccc2O1 (single isomer, unassigned) [compound 285] | 500
44 | Cc1c(F)cccc1C1CCc2cc(OC3CCC(C(=O)NC4CCCCC4O)CC3)ccc2O1 (single isomer, unassigned) [compound 286] | 500
